Data taken from patent publication US8440652B2, “MST1 kinase inhibitors and methods of their use” (Lexicon Pharmaceuticals, Inc., priority 2011, dated 2013).
Like-named read-outs stand apart in the source and are kept apart here.

Molecular target: T1, MST1 (Homo sapiens, UniProt Q13043)
T1 sequence (Q13043 1-487): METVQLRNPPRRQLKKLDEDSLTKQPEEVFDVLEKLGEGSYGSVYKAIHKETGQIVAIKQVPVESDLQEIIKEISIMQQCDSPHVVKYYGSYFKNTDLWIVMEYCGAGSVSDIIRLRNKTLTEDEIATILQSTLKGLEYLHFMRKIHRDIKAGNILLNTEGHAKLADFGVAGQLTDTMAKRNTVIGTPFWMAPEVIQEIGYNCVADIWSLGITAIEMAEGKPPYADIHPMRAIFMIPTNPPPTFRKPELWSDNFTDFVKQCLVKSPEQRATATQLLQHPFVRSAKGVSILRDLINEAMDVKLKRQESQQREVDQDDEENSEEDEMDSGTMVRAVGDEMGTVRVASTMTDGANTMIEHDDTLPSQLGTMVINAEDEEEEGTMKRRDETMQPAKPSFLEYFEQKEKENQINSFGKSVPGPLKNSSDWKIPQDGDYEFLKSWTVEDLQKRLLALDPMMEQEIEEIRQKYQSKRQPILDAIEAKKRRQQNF
Test: In vitro measurement of MST1 inhibition (Z′-Lyte kinase assay)
Assay type: biochemical

[1] = 1 μM ATP, read-out: IC50 (μM) 1 μM ATP
[2] = 50 μM ATP, read-out: IC50 (μM) 50 μM ATP

Row | Structure (SMILES) | IC50 [1] [µM] | IC50 [2] [µM]
1 | Nc1ncc(-c2ccc(F)cc2)cc1-c1ccc2c(c1)CCNC2=O [6-(2-amino-5-(4-fluorophenyl)pyridin-3-yl)-3,4-dihydroisoquinolin-1(2H)-one] | < 0.15 | < 0.05
2 | Cn1cc(-c2cnc(N)c(-c3ccc4c(c3)CCNC4=O)n2)cn1 [6-(3-amino-6-(1-methyl-1H-pyrazol-4-yl)pyrazin-2-yl)-3,4-dihydroisoquinolin-1(2H)-one] | < 0.15 | < 0.05
3 | CC(Oc1ccc(-c2cnc(N)c(-c3ccc4c(c3)CCNC4=O)n2)cc1)C1CC1 (stereo not drawn) [6-(3-amino-6-(4-(1-cyclopropylethoxy)phenyl)pyrazin-2-yl)-3,4-dihydroisoquinolin-1(2H)-one] | < 0.05 | < 0.01
4 | Nc1ncc(-c2ccc(C(=O)C(F)(F)F)cc2)nc1-c1ccc2c(c1)CCNC2=O [6-(3-amino-6-(4-(2,2,2-trifluoroacetyl)phenyl)pyrazin-2-yl)-3,4-dihydroisoquinolin-1(2H)-one] | < 0.15 | < 0.05
5 | CC(C)(O)c1ccc(-c2cnc(N)c(-c3ccc4c(c3)CCNC4=O)n2)cc1 [6-(3-amino-6-(4-(2-hydroxypropan-2-yl)phenyl)pyrazin-2-yl)-3,4-dihydroisoquinolin-1(2H)-one] | < 0.05 | < 0.01
6 | Nc1ncc(-c2ccc(C3(O)CCOCC3)cc2)nc1-c1ccc2c(c1)CCNC2=O [6-(3-amino-6-(4-(4-hydroxytetrahydro-2H-pyran-4-yl)phenyl)pyrazin-2-yl)-3,4-dihydroisoquinolin-1(2H)-one] | < 0.05 | < 0.01
7 | Nc1ncc(-c2ccc(S(=O)(=O)CC3CC3)cc2)nc1-c1ccc2c(c1)CCNC2=O [6-(3-amino-6-(4-((cyclopropylmethyl)sulfonyl)phenyl)pyrazin-2-yl)-3,4-dihydroisoquinolin-1(2H)-one] | < 0.05 | < 0.01
8 | Nc1ncc(-c2ccc(S(F)(F)(F)(F)F)cc2)nc1-c1ccc2c(c1)CCNC2=O [6-(3-amino-6-(4-(pentafluorosulfanyl)phenyl)pyrazin-2-yl)-3,4-dihydroisoquinolin-1(2H)-one] | < 0.15 | < 0.05

More lines, now with the values ahead:

Row | IC50 [1] [µM] | IC50 [2] [µM] | Structure (SMILES)
9 | < 0.05 | < 0.01 | CC(C)(c1ccc(-c2cnc(N)c(-c3ccc4c(c3)CCNC4=O)c2)cc1)N1CCOCC1 [6-(2-amino-5-(4-(2-morpholinopropan-2-yl)phenyl)pyridin-3-yl)-3,4-dihydroisoquinolin-1(2H)-one]
10 | < 0.05 | < 0.01 | CN(Cc1ccc(-c2cnc(N)c(-c3ccc4c(c3)CCNC4=O)c2)cc1)C1CC1 [6-(2-amino-5-(4-((cyclopropyl(methyl)amino)methyl)phenyl)pyridin-3-yl)-3,4-dihydroisoquinolin-1(2H)-one]
11 | < 0.05 | < 0.05 | CCS(=O)(=O)c1ccc(-c2cnc(N)c(-c3ccc4c(c3)CCNC4=O)c2)cc1 [6-(2-amino-5-(4-(ethylsulfonyl)phenyl)pyridin-3-yl)-3,4-dihydroisoquinolin-1(2H)-one]
12 | < 0.05 | < 0.05 | Nc1ncc(-c2ccc(F)cc2)cc1-c1cc2c(cn1)C(=O)NCC2 [6-(2-amino-5-(4-fluorophenyl)pyridin-3-yl)-3,4-dihydro-2,7-naphthyridin-1(2H)-one]
13 | < 0.05 | < 0.01 | Cc1ccc(-c2cnc(N)c(-c3ccc4c(c3)CCNC4=O)c2)s1 [6-(2-amino-5-(5-methylthiophen-2-yl)pyridin-3-yl)-3,4-dihydroisoquinolin-1(2H)-one]
14 | < 0.01 | < 0.01 | CNC1(c2ccc(-c3cnc(N)c(-c4ccc5c(c4)CCNC5=O)n3)cc2)CC1 [6-(3-amino-6-(4-(1-(methylamino)cyclopropyl)phenyl)pyrazin-2-yl)-3,4-dihydroisoquinolin-1(2H)-one]
15 | < 0.01 | < 0.01 | Nc1ncc(-c2ccc(S(=O)(=O)N3CCCCC3)cc2)nc1-c1ccc2c(=O)[nH]ccc2c1 [6-(3-amino-6-(4-(piperidin-1-ylsulfonyl)phenyl)pyrazin-2-yl)isoquinolin-1(2H)-one]
